According to the supplement of paper PMC4862054:

How the values were obtained:
Settings in all cases: 72 h
[1] = test system: DU-4475
Summary of the method: (§1)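 Breast cancer cell lines in 20 µl suspension were seeded onto 384-well plates that already held compound dissolved in 5 µl medium and were incubated for 72 h. Viability was measured by adding 2.5 µl CellTiter-Blue for 2 h at 37 °C and reading fluorescence at 560/590 nm. Each plate was normalised to vehicle and a positive kill control and checked by Z'-factor. EC50 was taken from a fitted percent-inhibition dose-response curve, censored at the highest concentration, and rows with a drug sensitivity score of zero were removed.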

[2] = test system: CAL-148
Summary of the method: as §1

[3] = test system: CAL-85-1
Summary of the method: as §1

[4] = test system: CAL-51
Summary of the method: as §1

[5] = test system: MDA-MB-453
Summary of the method: as §1

[6] = test system: CAL-120
Summary of the method: (§2)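 A 20 µl suspension of breast cancer cells was placed in 384-well plates that already contained compound at 5 concentrations in 10-fold steps across a compound-specific 10,000-fold range, and the plates were left for 72 h. CellTox Green fluorescence at 485/520 nm gave cell death, and CellTiter-Glo luminescence, read after 10 min at room temperature, gave viability. Each plate was normalised to 0.1 % DMSO and a positive kill control. EC50 was fitted from the curves and censored at the top concentration.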

[7] = test system: BT-549
Summary of the method: as §2

[8] = test system: MDA-MB-436
Summary of the method: as §2

[9] = test system: CAL-85-1; remark: listed apart in the source
Summary of the method: as §2

[10] = test system: CAL-51; remark: listed apart in the source
Summary of the method: as §2

[11] = test system: MDA-MB-468
Summary of the method: as §2

[12] = test system: SK-BR-3
Summary of the method: as §2

[13] = test system: DU-4475; remark: listed apart in the source
Summary of the method: as §2

[14] = test system: BT-474
Summary of the method: as §2

[15] = test system: MFM-223
Summary of the method: as §2

[16] = test system: HDQ-P1
Summary of the method: as §2

[17] = test system: MDA-MB-453; remark: listed apart in the source
Summary of the method: as §2

[18] = test system: MDA-MB-231
Summary of the method: as §2

[19] = test system: HCC1937
Summary of the method: as §2

[20] = test system: HCC1599
Summary of the method: as §2

[21] = test system: Hs578T
Summary of the method: as §2

| SMILES | EC50, CellTiter-Blue viability [1] [nM] | EC50, CellTiter-Blue viability [2] [nM] | EC50, CellTiter-Blue viability [3] [nM] | EC50, CellTiter-Blue viability [4] [nM] | EC50, CellTiter-Blue viability [5] [nM] | EC50, CellTiter-Glo [6] [nM] | EC50, CellTiter-Glo [7] [nM] | EC50, CellTiter-Glo [8] [nM] | EC50, CellTiter-Glo [9] [nM] | EC50, CellTiter-Glo [10] [nM] | EC50, CellTiter-Glo [11] [nM] | EC50, CellTiter-Glo [12] [nM] | EC50, CellTiter-Glo [13] [nM] | EC50, CellTiter-Glo [14] [nM] | EC50, CellTiter-Glo [15] [nM] | EC50, CellTiter-Glo [16] [nM] | EC50, CellTiter-Glo [17] [nM] | EC50, CellTiter-Glo [18] [nM] | EC50, CellTiter-Glo [19] [nM] | EC50, CellTiter-Glo [20] [nM] | EC50, CellTiter-Glo [21] [nM] |
| --- | --- | --- | --- | --- | --- | --- | --- | --- | --- | --- | --- | --- | --- | --- | --- | --- | --- | --- | --- | --- | --- |
| CO[C@@]12[C@H](COC(N)=O)C3=C(C(=O)C(C)=C(N)C3=O)N1C[C@@H]1N[C@@H]12 [Mitomycin C] | 5070 | 2940 | 3920 | 5790 | 3420 | > 10000 | 1680 | 7150 | 2420 | 1140 | 3860 | > 10000 | – | – | – | – | – | – | – | – | – |
| CCNC(=O)c1noc(-c2cc(C(C)C)c(O)cc2O)c1-c1ccc(CN2CCOCC2)cc1 [NVP-AUY922] | 15.9 | 19.4 | 18.8 | 22.2 | 15.3 | 37.2 | 11.7 | 5.43 | 38.8 | 34 | 4.55 | 7.09 | 33.1 | 42.4 | 10.2 | 14.1 | 42.6 | 40.4 | 28 | 37.1 | 41.8 |
| CC(=O)[C@]1(O)Cc2c(O)c3c(c(O)c2[C@@H](O[C@H]2C[C@H](N)[C@H](O)[C@H](C)O2)C1)C(=O)c1ccccc1C3=O [Idarubicin] | 23.4 | 18.7 | 240 | 7.78 | 396 | 580 | 144 | 134 | 252 | 49.1 | 152 | 185 | 193 | 404 | 470 | 837 | 750 | 286 | 665 | 466 | 281 |
| CO[C@@H]1[C@H](N(C)C(=O)c2ccccc2)C[C@H]2O[C@]1(C)n1c3ccccc3c3c4c(c5c6ccccc6n2c5c31)C(=O)NC4 [Midostaurin] | 451 | – | 314 | 182 | 92.3 | 275 | 585 | 690 | 831 | 308 | 229 | 634 | 562 | 275 | 595 | 465 | – | 265 | 547 | – | 254 |
| C=CCn1c(=O)c2cnc(Nc3ccc(N4CCN(C)CC4)cc3)nc2n1-c1cccc(C(C)(C)O)n1 [MK1775] | 477 | 242 | 507 | 382 | 310 | 740 | 373 | 308 | 294 | 380 | 759 | 203 | 1740 | 233 | 250 | 326 | 66.3 | 172 | 344 | 183 | 275 |
